Test in all cases: growth of human tumour cells (NCI), 48 h
The test system of test [1] is 786-0.
Test [2] has as its system A498.
For test [3], the system named is HCT-15.
For test [4], the system named is HOP-62.
In test [5] the test system is HT-29.
For test [6], the system named is KM12.
For test [7], the system named is LXFL 529.
In test [8] the test system is OVCAR-5.
Test [9] concerns OVCAR-8.
For test [10], the system named is RXF 393.
For test [11], the system named is SF-268.
The test system of test [12] is SF-295.
For test [13], the system named is SF-539.
The subject of test [14] is SK-OV-3.
Test [15] deals with UO-31.

The structures appear in SMILES notation.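 Each compound was tested at five concentrations against cells in 96-well plates for 48 hours. The concentration for 50% growth inhibition is given as GI50.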 The source made the active and inactive calls. No stated cut-off is given here; in the data, active = GI50 up to about 1.1 µM and inactive = higher.

As to `C1CSCCSCCCS[C@@H]2CCCCC2SC1` (some centres undefined), the GI50 was > 100 µM (inactive) in [1]; > 100 µM (inactive) in test [2]; 15.4 µM in test [3]; > 100 µM (inactive) in test [4]; > 100 µM (inactive) in test [5]; > 100 µM (inactive) in test [6]. The GI50 in test [7], in [8], in [9], in [10], in test [11] and in [12] was > 100 µM (inactive) throughout. The GI50 in [13], in test [14] and in test [15] was > 100 µM (inactive) throughout.

For `O=C1c2ccncc2C(=O)c2c(O)ccc(O)c21`, the GI50 in test [1] was 6.38 µM (inactive); in test [2] it was 19 µM (inactive); in test [3], 4.52 µM; in test [4] it was 32.2 µM (inactive); in test [5] it was 3.07 µM (inactive); in [6] it was 6.07 µM (inactive). Moreover, the GI50 in test [7] was 10.3 µM (inactive); in test [8], 16 µM (inactive); in [9], 9.64 µM (inactive); in test [10], 4.35 µM (inactive); in test [11], 11.1 µM (inactive); in test [12], 12.6 µM (inactive). For the same compound, the GI50 in test [13] was 3.89 µM (inactive); in test [15], 16.2 µM (inactive).

In the case of `O=C1N/C(=C\[N+](=O)[O-])c2ccccc21`, the GI50 in [1] was > 100 µM (inactive); in [2], > 100 µM (inactive); in [3], greater than 100 µM; in test [4] it was > 100 µM (inactive); in test [5] it was > 100 µM (inactive); in [6], > 100 µM (inactive). The GI50 in test [7], in test [8], in test [9], in test [10], in test [11] and in test [12] was > 100 µM (inactive) each time. Moreover, the GI50 in [13], in test [14] and in [15] was > 100 µM (inactive) each time.

`NC(=S)N/N=C1/C(=O)N(c2ccccc2)C(=O)C1C(=O)Nc1ccccc1` (centres undefined): the GI50 in [1] is > 100 µM (inactive); in [2], > 100 µM (inactive); in [3], greater than 100 µM; in test [4], > 100 µM (inactive); in test [5] it was > 100 µM (inactive); in [6], > 100 µM (inactive). The GI50 in [7], in [8], in [9], in test [10], in test [11] and in test [12] was > 100 µM (inactive) throughout. For the same compound, the GI50 in test [13], in test [14] and in [15] was > 100 µM (inactive) in each case.

On to `NC(=O)CN(CC(N)=O)C(N)=O`, for which the GI50 is > 100 µM (inactive) in test [1]; > 100 µM (inactive) in test [2]; greater than 100 µM in test [3]; > 100 µM (inactive) in test [5]; > 100 µM (inactive) in [6]; > 100 µM (inactive) in [7]. The GI50 in test [8], in [9], in [10], in [11], in test [12] and in [13] was > 100 µM (inactive) throughout. For the same compound, the GI50 in test [14] and in test [15] was > 100 µM (inactive) in each case.

For the compound `O=C1O[C@@H](c2ccccc2)C[C@@H]1CN1CCOCC1`, the GI50 in test [1] was > 100 µM (inactive); in test [2] it was > 100 µM (inactive); in [3], greater than 100 µM; in test [4], > 100 µM (inactive); in test [5], > 100 µM (inactive); in test [6], > 100 µM (inactive). Also, the GI50 in [7], in test [8], in test [9], in test [10], in [11] and in test [12] was > 100 µM (inactive) throughout. Moreover, the GI50 in test [13], in test [14] and in test [15] was > 100 µM (inactive) each time.

For the compound `O=C(NCCCN1CCN(CCCNC(=O)c2cnc3ccccc3n2)CC1)c1cnc2ccccc2n1`, the GI50 was > 100 µM (inactive) in test [1]; 82 µM (inactive) in test [2]; greater than 100 µM in [3]; > 100 µM (inactive) in test [4]; 88.3 µM (inactive) in [5]; > 100 µM (inactive) in test [6]. For the same compound, the GI50 in [7], in [9], in test [10], in test [11], in test [12] and in [13] was > 100 µM (inactive) each time. The GI50 in test [14] and in test [15] was > 100 µM (inactive) throughout.

As for `O=[N+]([O-])CCc1cccc([N+](=O)[O-])c1`, the GI50 in test [1] is > 100 µM (inactive); in [2], > 100 µM (inactive); in test [3], greater than 100 µM; in test [4] it was > 100 µM (inactive); in test [5] it was > 100 µM (inactive); in [6], > 100 µM (inactive). Further, the GI50 in test [7], in [8], in test [9], in test [10], in test [11] and in [12] was > 100 µM (inactive) throughout. The GI50 in test [13] and in test [15] was > 100 µM (inactive) each time.

As to `COc1ccc(/C=C/C(=O)c2sc(NC(=S)NC(=O)c3ccc(Cl)cc3)nc2C)cc1OC`, the GI50 in test [1] was 83.8 µM (inactive); in test [3], 35 µM; in test [4] it was 47.5 µM (inactive); in test [5] it was 88.1 µM (inactive); in test [6], 59.2 µM (inactive); in test [7], 32.2 µM (inactive). Moreover, the GI50 in test [8] is > 100 µM (inactive); in test [9] it was 43.9 µM (inactive); in test [10], 95.5 µM (inactive); in [11], 94.8 µM (inactive); in test [12], 77.4 µM (inactive); in test [13] it was 60.4 µM (inactive). Besides, the GI50 is > 100 µM (inactive) in [14] and 64 µM (inactive) in test [15].

Take `COc1ccc(C(C#N)NNc2nc(C)cc(O)n2)cc1OC` (centres undefined): the GI50 is > 100 µM (inactive) in [1]; greater than 100 µM in test [3]; > 100 µM (inactive) in [4]; > 100 µM (inactive) in test [5]; > 100 µM (inactive) in [6]; > 100 µM (inactive) in test [7]. For the same compound, the GI50 in [8], in test [9], in test [10], in test [11], in [12] and in test [13] was > 100 µM (inactive) throughout. Further, the GI50 in test [14] and in test [15] was > 100 µM (inactive) throughout.

As for `COc1cc(Br)c(C2OCCCO2)cc1OCc1ccccc1`, the GI50 in [1] is > 100 µM (inactive); in test [2], > 100 µM (inactive); in test [3], 61.1 µM; in test [4], > 100 µM (inactive); in [5] it was > 100 µM (inactive); in test [6] it was > 100 µM (inactive). The GI50 in test [7] is 48.2 µM (inactive); in test [8], > 100 µM (inactive); in test [9], > 100 µM (inactive); in [10], 64 µM (inactive); in [11], 39 µM (inactive); in test [12] it was > 100 µM (inactive). The GI50 in test [13] was 73.1 µM (inactive); in [14] it was > 100 µM (inactive); in [15] it was 28.2 µM (inactive).

Take `Nc1c(-c2ccccc2-c2c(N)[n+]([O-])c3ccccc3[n+]2[O-])[n+]([O-])c2ccccc2[n+]1[O-]`: the GI50 is 12 µM (inactive) in [1]; 20.8 µM (inactive) in test [2]; 5.28 µM in test [3]; 6.9 µM (inactive) in [5]; 8.32 µM (inactive) in test [6]; 6.19 µM (inactive) in test [7]. Besides, the GI50 was 64.6 µM (inactive) in [8]; 3.7 µM (inactive) in test [9]; 30.3 µM (inactive) in test [10]; 3.16 µM (inactive) in test [11]; 12.9 µM (inactive) in [12]; 17.5 µM (inactive) in test [13]. Also, the figures for the GI50 in test [14] and in test [15] were 22.9 µM (inactive) and 10 µM (inactive), respectively.

Consider `CC(=O)N1c2ccccc2C2=CC3C4C(=O)N(c5ccccc5)C(=O)C4C21C1C(=O)N(c2ccccc2)C(=O)C31` (centres undefined), for which the GI50 is 37.2 µM (inactive) in test [1]; 74.5 µM (inactive) in test [2]; 17.1 µM in test [3]; 36.9 µM (inactive) in test [5]; 35.6 µM (inactive) in [6]; 81.3 µM (inactive) in test [7]. Moreover, the GI50 in test [8] was 55.1 µM (inactive); in test [9] it was 23.1 µM (inactive); in [11], 17.3 µM (inactive); in test [12], 7.06 µM (inactive); in [13], 2.61 µM (inactive); in test [14], 23.1 µM (inactive). In addition, the GI50 in test [15] is 48.3 µM (inactive).

In the case of `COc1ccc2c(c1)C(CCN)C(=O)N2` (centres undefined), the GI50 was > 100 µM (inactive) in [1]; > 100 µM (inactive) in test [2]; greater than 100 µM in [3]; > 100 µM (inactive) in test [4]; > 100 µM (inactive) in test [5]; > 100 µM (inactive) in test [6]. Moreover, the GI50 in test [7], in [8], in test [9], in [11], in test [12] and in test [13] was > 100 µM (inactive) throughout. The GI50 in [14] was > 100 µM (inactive).

For the origin of these results see ChEMBL document CHEMBL1201862, “PubChem BioAssay data set” (2004).
